The results in this text go back to US12150995B2, “IRAK degraders and uses thereof” (Kymera Therapeutics, Inc., priority 2020, dated 2024).

The target of this test is T1, IRAK4 (Homo sapiens, UniProt Q9NWZ3).
T1 construct: endogenous in cells; host or cells: OCI-LY10
T1 sequence (Q9NWZ3 1-460): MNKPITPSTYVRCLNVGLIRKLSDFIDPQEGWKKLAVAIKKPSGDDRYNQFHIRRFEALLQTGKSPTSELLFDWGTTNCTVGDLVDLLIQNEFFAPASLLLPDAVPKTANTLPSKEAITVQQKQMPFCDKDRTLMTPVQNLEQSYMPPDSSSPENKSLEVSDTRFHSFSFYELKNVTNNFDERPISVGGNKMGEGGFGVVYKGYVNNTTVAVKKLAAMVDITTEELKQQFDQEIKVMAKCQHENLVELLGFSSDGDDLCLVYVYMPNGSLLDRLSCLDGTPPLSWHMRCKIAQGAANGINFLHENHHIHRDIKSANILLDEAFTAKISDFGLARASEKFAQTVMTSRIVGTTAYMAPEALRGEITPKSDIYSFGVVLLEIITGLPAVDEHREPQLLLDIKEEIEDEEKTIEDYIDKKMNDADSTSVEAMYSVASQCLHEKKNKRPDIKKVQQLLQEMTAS
Description: IRAK4 MSD Degradation in OCI-LY10. The note with it: OCI-LY10 cells, Meso Scale Discovery, incubated 4 to 24 hours. The class given is cell-based. In short, it runs like this: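 IRAK4 degradation was quantified by Meso Scale electrochemiluminescence (anti-IRAK4 capture and detection antibodies) in lysates of treated OCI-LY10 cells. Compounds were dosed at 8 concentrations (1:3 dilutions, top 1 to 10 μM) for 4 to 24 h; DC50 derived by three-parameter logistic fitting.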

What is called DC50 is the concentration giving 50% degradation.

For `CC(C)(O)c1cc2nn([C@H]3CC[C@H](CN4CCC(c5ccc6c(N7CCC(=O)NC7=O)cncc6c5)CC4)CC3)cc2cc1NC(=O)c1cccc(C(F)(F)F)n1` [I-64], the DC50 was below 0.01 µM.

Molecule `COc1cc2nn([C@H]3CC[C@H](CN(C)C4CCN(c5cccc6c5n(C)c(=O)n6C5CCC(=O)NC5=O)CC4)CC3)cc2cc1NC(=O)n1ccc2cccnc21` (some centres unmarked) [I-113] came in with a DC50 below 0.01 µM.

For the molecule `Cn1c(=O)n(C2CCC(=O)NC2=O)c2cccc(C3CCN(C[C@H]4CC[C@H](c5cc6cc(NC(=O)c7cccc(C(F)(F)F)n7)ccn6n5)CC4)CC3)c21` (some centres unmarked) [I-242], the DC50 is below 0.01 µM.

With `COc1cc2nn([C@H]3CC[C@H](CN4CC[C@H](c5cccc6c5n(C)c(=O)n6C5CCC(=O)NC5=O)CC4(C)C)CC3)cc2cc1NC(=O)c1cccc(C(F)(F)F)n1` (single isomer, unassigned) [I-292], the DC50 was below 0.01 µM.

With `Cn1c(=O)n(C2CCC(=O)NC2=O)c2cccc(N3CCN(C[C@H]4CC[C@H](n5cc6cc7nc(-c8cccc(C(F)(F)F)n8)oc(=O)c7cc6n5)CC4)CC3)c21` (some centres unmarked) [I-406, 3-[3-methyl-2-oxo-4-[4-[[4-[8-oxo-6-[6-(trifluoromethyl)-2-pyridyl]pyrazolo[3,4-g] [3,1]benzoxazin-2-yl]cyclohexyl]methyl]piperazin-1-yl]benzimidazol-1-yl]piperidine-2,6-dione], the DC50 was 0.01 to 0.05 µM.

Molecule `CN(C[C@H]1CC[C@H](n2cc3cc(NC(=O)c4cccc(C(F)(F)F)n4)ncc3n2)CC1)C1CCN(c2cccc3c2n(C)c(=O)n3C2CCC(=O)NC2=O)CC1` (some centres unmarked) [I-238] displayed a DC50 below 0.01 µM.

As to `Cc1cccc(C(=O)Nc2cc3sc([C@H]4CC[C@H](C(=O)N5CCN(CCCNc6cccc7c6C(=O)N(C6CCC(=O)NC6=O)C7=O)CC5)CC4)nc3cc2C(C)(C)O)n1` (some centres unmarked) [I-465], the DC50 is below 0.01 µM.

In the case of `Cn1c(=O)n(C2CCC(=O)NC2=O)c2cccc(C3C[C@H]4CC[C@@H](C3)N4C[C@H]3CC[C@H](n4cc5cc(NC(=O)c6cccc(C(F)(F)F)n6)ccc5n4)CC3)c21` (single isomer, unassigned) [I-250], the half-maximal degradation concentration (DC50) was 0.01 to 0.05 µM.

Molecule `CC(C)Nc1cc(-c2ccc3cc(C#N)cnn23)ncc1C(=O)N[C@H]1CC[C@H](CN2CCC(c3ccc4c(N5CCC(=O)NC5=O)cncc4c3)CC2)CC1` [I-198] registered a DC50 below 0.01 µM.

In the case of `CN(Cc1ccc(-n2cc3cc(NC(=O)c4cccc(C(F)(F)F)n4)c(C(C)(C)O)cc3n2)cc1)[C@H]1CC[C@H](Nc2cccc3c2C(=O)N(C2CCC(=O)NC2=O)C3=O)CC1` (some centres unmarked) [I-463], the DC50 is 0.01 to 0.05 µM.

The molecule `COc1ccc2c(c1C1CCN(C[C@H]3CC[C@H](n4cc5cc(NC(=O)c6cccc(C(F)(F)F)n6)ncc5n4)CC3)CC1)n(C)c(=O)n2C1CCC(=O)N(C)C1=O` (some centres unmarked) [I-245] had a DC50 above 0.2 µM.

`COc1cc2nn([C@H]3CC[C@H](CN4CCCN(c5cccc6c5n(C)c(=O)n6C5CCC(=O)NC5=O)CC4)CC3)cc2cc1NC(=O)c1cncc(C#N)c1` (some centres unmarked) [I-367] displayed a DC50 of 0.01 to 0.05 µM.

With `Cc1cc2nn([C@H]3CC[C@H](CN4CCN(c5cccc6c(N7CCC(=O)NC7=O)cncc56)CC4)CC3)cc2cc1NC(=O)c1cccc(C(F)(F)F)n1` [I-261], the DC50 was in the range of 0.01 to 0.05 µM.

Molecule `COc1ccc2c(c1C1CCN(C[C@H]3CC[C@H](n4cc5cc(NC(=O)c6cccc(C(F)(F)F)n6)c(C#N)cc5n4)CC3)CC1)n(C)c(=O)n2C1CCC(=O)NC1=O` (some centres unmarked) [I-205] displayed a DC50 below 0.01 µM.

Molecule `COc1cc2nn([C@H]3CC[C@H](CN(C)C4CCN(c5ccc6c(N7CCC(=O)NC7=O)cncc6c5)CC4)CC3)cc2cc1NC(=O)c1cccc(C(F)(F)F)n1` [I-320] displayed a DC50 below 0.01 µM.

Consider `Cn1c(=O)n(C2CCC(=O)NC2=O)c2cccc(C3CCN(C[C@H]4C[C@@H](n5cc6cc(NC(=O)c7cccc(C(F)(F)F)n7)c(F)cc6n5)C4)CC3)c21` (some centres unmarked) [I-18], for which the DC50 was above 0.2 µM.

Consider `COc1cc2nn([C@H]3CC[C@H](CN4CCC(c5c(F)ccc6c5n(C)c(=O)n6C5CCC(=O)NC5=O)CC4)CC3)cc2cc1NC(=O)c1cccc(C(F)(F)F)n1` (some centres unmarked) [I-101], for which the DC50 was below 0.01 µM.
